Holding throughout (experiment): cells
Experiment [1] has as its system DU-145. It is filed as cell-based, human. Particulars: Homo sapiens, DU-145, 168 h, read-out: GI50 DU-145 prostate.
Experiment [2] concerns HCT-15. It is filed as cell-based, human. The note with it: Homo sapiens, HCT-15, 168 h, read-out: GI50 HCT-15 colorectal.
For experiment [3], the system named is MCF7. The format is cell-based, human. Particulars: Homo sapiens, MCF7, 168 h, read-out: GI50 MCF7 breast.
Experiment [4] concerns ten-member panel of human carcinomas. It is filed as cell-based. The note with it: Homo sapiens, read-out: GI50 values.
Experiment [5] concerns H1299. The format is cell-based, human. Particulars: Homo sapiens, NCI-H1299, 168 h, read-out: GI50 H1299 lung (−p53).
The test system of experiment [6] is NCI-H460. The format is cell-based, human. The note with it: Homo sapiens, NCI-H460, 168 h, read-out: GI50 NCI-H460 lung.
The test system of experiment [7] is Hep3b. The format is cell-based, human. Particulars: Homo sapiens, Hep3B, 168 h, read-out: GI50 Hep3b liver.
The subject of experiment [8] is HT29. The format is cell-based, human. The note with it: Homo sapiens, HT-29, 168 h, read-out: GI50 HT29 colorectal.
In experiment [9] the test system is SKOV3. It is filed as cell-based, human. Particulars: Homo sapiens, SK-OV-3, 168 h, read-out: GI50 SKOV3 ovary.
Experiment [10] concerns A549. The format is cell-based, human. The note with it: Homo sapiens, A549, 168 h, read-out: GI50 A549 lung (+p53).
Experiment [11] relates to SF-268. It is filed as cell-based, human. Particulars: Homo sapiens, SF-268, 168 h, read-out: GI50 SF-268 CNS.

Broadly, the GI50 is the concentration giving 50% growth inhibition.

Turning to `O=C(O)CCCc1ccc(N(CCCl)CCCl)cc1` [Compound 1, Chlorambucil, reference compound], the GI50 is 9.4 ± 0.2 µM in experiment [1]; 8.1 ± 0.1 µM in experiment [2]; 8.2 ± 0.2 µM in experiment [3]; 5 to 11 µM in experiment [4]; 4.9 ± 0.2 µM in experiment [5]; 11 ± 0.9 µM in experiment [6]. Also, the GI50 is 5.1 ± 0.2 µM in [7]; 5 ± 0.3 µM in [8]; 5.5 ± 0.4 µM in experiment [9]; 6.1 ± 0.3 µM in experiment [10]; 5.4 ± 0.1 µM in [11].

Values taken from US8552176B2 (priority 2010, dated 2013).
